pIC50: −log10 of the molar value. Read-outs that look alike come from different tables or passages of the source.
Tests used:
AtD14 = molecular target: T1, AtD14 (Arabidopsis thaliana, UniProt Q9SQR3); assay: Affinity for strigolactone receptor, YLG probe competition (fluorescence); type: binding
T1 construct: made in house; host or cells: E. coli
T1 sequence (Q9SQR3 1-267): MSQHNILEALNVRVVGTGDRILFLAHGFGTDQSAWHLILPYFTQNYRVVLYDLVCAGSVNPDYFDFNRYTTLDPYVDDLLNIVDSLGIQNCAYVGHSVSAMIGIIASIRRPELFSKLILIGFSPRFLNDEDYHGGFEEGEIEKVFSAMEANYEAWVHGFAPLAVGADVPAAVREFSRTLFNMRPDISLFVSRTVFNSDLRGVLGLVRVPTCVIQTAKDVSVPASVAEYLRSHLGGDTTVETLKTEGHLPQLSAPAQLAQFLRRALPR
Text: PTL 1 reports that the affinity of a test compound for the strigolactone receptor can be evaluated by reacting strigolactone with a probe for evaluation of affinity for a strigolactone receptor (e.g., YLG) in the presence of the test compound, and measuring the fluorescence emitted from the decomposition product of YLG. […] The details are as follows.
An Arabidopsis thaliana strigolactone receptor (AtD14) was produced in accordance with a usual method. More specifically, cDNA of the receptor was obtained by RT-PCR, and expression and purification were carried out in E. coli. Additionally, Striga strigolactone receptors were produced by the method disclosed in PTL 1 (ShHTL1: amino acid SEQ ID NO: 1, ShHTL2: amino acid SEQ ID NO: 2, ShHTL3: amino acid SEQ ID NO: 3, ShHTL4: amino acid SEQ ID NO: 4, ShHTL5: amino acid SEQ ID NO: 5, ShHTLS: amino acid SEQ ID NO: 6, ShHTL7: amino acid SEQ ID NO: 7, ShHTLS: amino acid SEQ ID NO: 8, ShHTL9: amino acid SEQ ID NO: 9, ShHTL10: amino acid SEQ ID NO: 10, and ShHTL11: amino acid SEQ ID NO: 11.)
One hundred microliters of a reaction solution containing each of the obtained strigolactone receptors ([…]), YLG (final concentration: […]), and each of the test compounds (final concentration: 0.01 to 10 µM) or the control compound (5-deoxystrigol, final concentration: 0.01 to 10 µM) as a competitive compound (100 mM HEPES, 150 mM NaCl, pH: 7.0, 0.1% DMSO) was prepared and reacted in a 96 black-well plate (Greiner). Sixty after the initiation of the reaction, fluorescence was detected at an excitation wavelength of 480 nm and a detection wavelength of 520 nm using a fluorescence detector (SpectraMax i3, manufactured by Molecular Devices), and the fluorescence intensity was measured.

Phelipanche aegyptiaca = assay: Parasitic plant germination induction test (Phelipanche aegyptiaca seeds); type: in vivo; settings: in the dark for 2 days
Description: (§1) A parasitic plant germination induction test was conducted using the compounds synthesized in Example 1 as test compounds. The seeds of a parasitic plant (Striga hermonthica, Orobanche minor, or Phelipanche aegyptiaca) were suspended in sterilized ultrapure water, and this was dispensed in an amount of 100 µL each (containing about 20 seeds) into a 96-well plate. The test compounds or control compounds (Comparison Compound 1 or synthetic Strigolactone (GR^24: Comparison Compound 2)) dissolved in DMSO were individually added thereto to a final concentration of these compounds of 10 nM to 1 fM (1 × 10^-8 to 1 × 10^-15 M), and allowed to stand in the dark for 2 days. The presence or absence of germination was observed using a microscope, and the germination rate (i.e., number of germinated seeds/total number of seeds) was measured. The higher the germination rate in the parasitic plant germination induction test, or the higher the germination rate at lower concentration, the higher the Striga germination inducing activity.
(§2) In Tables 1 to 6, the concentrations (10 nM, 1 nM, and 0.1 nM) represent compound concentrations. In Tables 1-6, the evaluation criteria for the compounds are as follows: • ++: germination rate of 20% or more • +: germination rate of 5% or more and less than 20% • -: germination rate of less than 5% Table 1

Orobanche minor = assay: Parasitic plant germination induction test (Orobanche minor seeds); type: in vivo; settings: in the dark for 2 days
Description: as §1, §2

[1] = AtD14, competition with YLG, test range 0.01 to 10 µM, pH 7.0, read-out: IC50 values of test compounds

SMILES	pIC50 (AtD14; [1])	pIC50 (AtD14)	Germination rate 1 nM (Phelipanche aegyptiaca; compound concentration 1 nM)	Germination rate 10 nM (Phelipanche aegyptiaca; compound concentration 10 nM)	Germination rate 0.1 nM (Orobanche minor; compound concentration 0.1 nM)	Germination rate 1 nM (Orobanche minor; compound concentration 1 nM)	Germination rate 10 nM (Orobanche minor; compound concentration 10 nM)
CC1=CC(OC=C2C(=O)OC3C4=C(CCCC4(C)C)CC23)OC1=O (centres unmarked) [5-Ddeoxystriqol, 5-deoxystrigol, reference compound]	6.36						
CCCCOc1ccc(S(=O)(=O)N2CCN(C(=O)OC3C=C(C)C(=O)O3)CC2)cc1 (centres unmarked) [Compound 1]		< 5.00	- (germination rate of less than 5%)	+ (germination rate of 5% or more and less than 20%)	- (germination rate of less than 5%)	++ (germination rate of 20% or more)	++ (germination rate of 20% or more)
CCCCOc1ccc(S(=O)(=O)N2CCN(C(=O)OC3C=CC(=O)O3)CC2)cc1 (centres unmarked) [Compound 13]	< 5.00						

Reference: EP3693362B1, “PARASITIC PLANT GERMINATION REGULATOR” (National University Corporation Tokai National Higher …, priority 2017, dated 2019)
